Laboratory results: US20260297060A1, “COMPOUNDS FOR THE DEGRADATION OF MUTANT BRAF” (C4 THERAPEUTICS, INC., priority 2023, published 2026)
Like-named read-outs stand apart in the source and are kept apart here.

Experiments:
[1] = biological target: T1, BRAF V600E (Homo sapiens, UniProt P15056+Q96SW2, V600E); experiment: BRAF V600E HiBiT Degradation Assay; assay type: cell-based
T1 construct: knock-in of the HiBiT tag to the endogenous BRAF V600E locus; host or cells: A375.10 (A375 clonal line, CRISPR HiBiT knock-in at the endogenous BRAF V600E locus)
Procedure, shortened: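 Endogenous HiBiT knock-in on BRAF V600E in A375 cells (clone A375.10); 11-point half-log series, top 10 μM, 2, 6 or 24 h at 37° C. Lytic HiBiT luminescence, background-subtracted, normalized to DMSO; 4-parameter fit gives DC50, Emax (residual protein) and IP (inflection point).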

[2] = tested on: A375-NRAS^Q61K cells; experiment: CTGlo Cell Viability Assay, A375-NRAS^Q61K (A375.11) cells, 96 hours; assay type: cell-based, human; conditions: A375.11 (A375-NRAS^Q61K) cells
Procedure, shortened: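 A375 cells carrying BRAF V600E and NRAS Q61K were seeded at 250 cells/well with a 10-point half-log dose series (max 10 μM final). After 96 h at 37 °C, viability was read as ATP luminescence (CellTiter-Glo), background-subtracted and normalized to DMSO (100%). GI50 from 4-parameter fit; Emax is the lowest % viability.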

[3] = A375.10 cells, BRAF V600E, 2 hours, inflection point, read-out: HiBiT-Degradation A375.10 BRAF 2 hours IP
[4] = A375.10 cells, BRAF V600E, 2 hours, read-out: HiBiT-Degradation A375.10 BRAF 2 hours DC50
[5] = A375.10 cells, BRAF V600E, 2 hours, residual protein remaining
[6] = A375.10 cells, BRAF V600E, 6 hours, inflection point, read-out: HiBiT-Degradation A375.10 BRAF 6 hours IP
[7] = A375.10 cells, BRAF V600E, 6 hours, read-out: HiBiT-Degradation A375.10 BRAF 6 hours DC50
[8] = A375.10 cells, BRAF V600E, 6 hours, residual protein remaining
[9] = A375.10 cells, HiBiT, BRAF V600E, 24 hours
[10] = A375.10 cells, HiBiT, BRAF V600E, 24 hours, read-out: HiBiT-Degradation A375.10 BRAF 24 hours DC50
[11] = A375.10 cells, HiBiT, BRAF V600E, 24 hours, read-out: HiBiT-Degradation A375.10 BRAF 24 hours IP

T1 sequence (P15056 whole entry V600E): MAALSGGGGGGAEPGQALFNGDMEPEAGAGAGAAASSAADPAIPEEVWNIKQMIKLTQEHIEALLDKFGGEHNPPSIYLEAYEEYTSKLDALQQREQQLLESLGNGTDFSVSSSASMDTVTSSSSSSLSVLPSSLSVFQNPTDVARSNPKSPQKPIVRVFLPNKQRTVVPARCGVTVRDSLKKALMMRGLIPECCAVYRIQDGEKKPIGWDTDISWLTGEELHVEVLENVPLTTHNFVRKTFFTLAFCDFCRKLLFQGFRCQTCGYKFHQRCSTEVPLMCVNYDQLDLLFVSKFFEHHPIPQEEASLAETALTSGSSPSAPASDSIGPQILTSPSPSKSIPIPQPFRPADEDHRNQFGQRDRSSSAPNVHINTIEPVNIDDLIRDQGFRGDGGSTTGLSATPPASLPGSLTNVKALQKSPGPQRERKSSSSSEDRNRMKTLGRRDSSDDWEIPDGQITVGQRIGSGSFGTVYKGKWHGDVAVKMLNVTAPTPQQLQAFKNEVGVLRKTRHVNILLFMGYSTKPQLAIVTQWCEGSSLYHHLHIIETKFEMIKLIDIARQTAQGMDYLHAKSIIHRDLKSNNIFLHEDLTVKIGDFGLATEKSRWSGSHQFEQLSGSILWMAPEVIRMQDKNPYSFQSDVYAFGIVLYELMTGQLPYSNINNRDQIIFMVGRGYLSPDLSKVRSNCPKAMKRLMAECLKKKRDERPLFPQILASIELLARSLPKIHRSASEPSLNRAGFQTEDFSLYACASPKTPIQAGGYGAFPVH
T1 sequence (Q96SW2 whole entry): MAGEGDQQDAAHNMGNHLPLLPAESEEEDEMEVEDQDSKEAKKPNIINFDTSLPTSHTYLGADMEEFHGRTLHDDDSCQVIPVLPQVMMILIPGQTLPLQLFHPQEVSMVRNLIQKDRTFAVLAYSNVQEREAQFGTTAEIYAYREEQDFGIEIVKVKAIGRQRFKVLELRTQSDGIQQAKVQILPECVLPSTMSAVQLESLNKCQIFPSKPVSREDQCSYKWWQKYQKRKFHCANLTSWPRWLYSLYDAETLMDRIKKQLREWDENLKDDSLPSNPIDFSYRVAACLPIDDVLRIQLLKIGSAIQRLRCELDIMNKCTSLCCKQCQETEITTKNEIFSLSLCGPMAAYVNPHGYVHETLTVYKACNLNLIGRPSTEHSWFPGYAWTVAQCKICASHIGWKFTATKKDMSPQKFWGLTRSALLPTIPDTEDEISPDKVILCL
T1 sequence (Q16531 whole entry partner): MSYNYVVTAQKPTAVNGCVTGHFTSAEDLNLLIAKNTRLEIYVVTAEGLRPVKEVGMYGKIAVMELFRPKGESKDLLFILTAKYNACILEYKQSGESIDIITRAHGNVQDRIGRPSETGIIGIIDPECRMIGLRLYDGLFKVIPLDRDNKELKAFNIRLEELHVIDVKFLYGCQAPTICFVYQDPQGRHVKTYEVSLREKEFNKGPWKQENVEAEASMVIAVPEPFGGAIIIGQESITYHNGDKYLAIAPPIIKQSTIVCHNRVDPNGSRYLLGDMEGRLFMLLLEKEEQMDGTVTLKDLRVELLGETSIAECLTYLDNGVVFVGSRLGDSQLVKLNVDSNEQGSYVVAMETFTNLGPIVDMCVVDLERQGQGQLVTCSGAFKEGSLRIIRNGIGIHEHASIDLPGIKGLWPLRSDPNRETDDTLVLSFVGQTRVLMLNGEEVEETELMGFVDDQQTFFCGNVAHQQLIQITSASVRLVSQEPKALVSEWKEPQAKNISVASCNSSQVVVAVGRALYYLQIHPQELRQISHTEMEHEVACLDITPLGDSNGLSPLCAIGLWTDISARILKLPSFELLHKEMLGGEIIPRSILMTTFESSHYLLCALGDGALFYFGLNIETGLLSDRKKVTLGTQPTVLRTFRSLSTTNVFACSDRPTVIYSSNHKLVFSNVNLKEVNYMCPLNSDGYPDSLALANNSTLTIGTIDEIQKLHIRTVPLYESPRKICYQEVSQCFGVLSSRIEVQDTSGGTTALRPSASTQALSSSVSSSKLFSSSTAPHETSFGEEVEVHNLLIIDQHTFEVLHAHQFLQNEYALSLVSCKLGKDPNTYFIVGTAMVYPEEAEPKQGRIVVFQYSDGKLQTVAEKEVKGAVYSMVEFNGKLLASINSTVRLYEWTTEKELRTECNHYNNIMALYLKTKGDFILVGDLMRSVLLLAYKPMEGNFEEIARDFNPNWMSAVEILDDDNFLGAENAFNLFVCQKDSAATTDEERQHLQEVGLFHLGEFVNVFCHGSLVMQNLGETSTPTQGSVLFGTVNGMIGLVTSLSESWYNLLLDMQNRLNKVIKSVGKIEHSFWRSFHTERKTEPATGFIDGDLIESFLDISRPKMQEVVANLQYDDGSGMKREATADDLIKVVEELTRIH

Row | Structure (SMILES) | DC50 [1, 3] [nM] | DC50 [1, 4] [nM] | HiBiT-Degradation A375.10 BRAF 2 hours Emax [1, 5] | GI50 [2] [nM] | CTGlo A375.11 96 hours Emax ([2]; lowest % viability achieved) | HiBiT-Degradation A375.10 BRAF 2 hours Emax [1] | DC50 [1, 6] [nM] | DC50 [1, 7] [nM] | HiBiT-Degradation A375.10 BRAF 6 hours Emax [1, 8] | HiBiT-Degradation A375.10 BRAF 24 hours Emax [1, 9] | DC50 [1, 10] [nM] | DC50 [1, 11] [nM] | Emax ([1]; A375.10 cells, BRAF V600E, 2 hours, residual protein remaining, read-out: HiBiT-Degradation A375.10 BRAF 2 hours Emax) [%] | DC50 ([1]; read-out: HiBiT-Degradation A375.10 BRAF 2 hours DC50, A375.10 cells, BRAF V600E, 2 hours) [nM] | DC50 ([1]; read-out: HiBiT-Degradation A375.10 BRAF 2 hours IP, A375.10 cells, BRAF V600E, 2 hours, inflection point) [nM] | GI50 ([2]; Homo sapiens, 96 h) [nM] | Emax ([2]; Homo sapiens, 96 h, lowest % viability achieved) [%]
1 | CCN(C)S(=O)(=O)Nc1ccc(F)c(Oc2ccc3ncn([C@H]4COC5(CCN(C6CCC(c7ccc(NC8CCC(=O)NC8=O)cc7F)CC6)CC5)C4)c(=O)c3c2F)c1C#N (single isomer, unassigned) [Compound 51] | < 1000 | < 1000 | ** (<90% and >50%) | 1000 to 10000 | *** (<=50%) |  |  |  |  |  |  |  |  |  |  |  | 
2 | CCN(C)S(=O)(=O)Nc1ccc(F)c(C(=O)c2ccc3ncn(C4CC5(CCN(C6CCC(c7cc8c(cc7F)c(N7CCC(=O)NC7=O)nn8C)CC6)CC5)C4)c(=O)c3c2)c1F (single isomer, unassigned) [Compound 183, 3-[7-[4-[3-(2,4-dioxohexahydropyrimidin-1-yl)-5-fluoro-1-methyl-indazol-6-yl]cyclohexyl]-7-azaspiro[3.5]nonan-2-yl]-6-[3-[[ethyl(methyl)sulfamoyl]amino]-2,6-difluoro-benzoyl]-4-oxo-quinazoline] | < 1000 | < 1000 | *** (<=50%) | 1000 to 10000 | ** (<90% and >50%) |  |  |  |  |  |  |  |  |  |  |  | 
3 | CCN(C)S(=O)(=O)Nc1ccc(F)c(Oc2ccc3ncn(C4CC5(CCN(C6CCC(c7cc8c(cc7F)c(N7CCC(=O)NC7=O)nn8C)CC6F)CC5)C4)c(=O)c3c2)c1C#N (single isomer, unassigned) [Compound 84, 6-[2-cyano-3-[[ethyl(methyl)sulfamoyl]amino]-6-fluoro-phenoxy]-3-[7-[4-[3-(2,4-dioxohexahydropyrimidin-1-yl)-5-fluoro-1-methyl-indazol-6-yl]-2-fluoro-cyclohexyl]-7-azaspiro[3.5]nonan-2-yl]-4-oxo-quinazoline] | < 1000 | < 1000 |  | 1000 to 10000 | ** (<90% and >50%) | *** (<=50%) | < 1000 | < 1000 | *** (<=50%) | *** (<=50%) | < 1000 | < 1000 |  |  |  |  | 
4 | Cn1nc(N2CCC(=O)NC2=O)c2cc(F)c(N3CC4(CC(N5CCC6(CC5)C[C@@H](n5cnc7ccc(Oc8c(F)ccc(NS(=O)(=O)N9CCC%10(CC%10)C9)c8C#N)cc7c5=O)CO6)C4)C3)cc21 [Compound 245, N-[2-cyano-3-[3-[(3R)-8-[2-[3-(2,4-dioxohexahydropyrimidin-1-yl)-5-fluoro-1-methyl-indazol-6-yl]-2-azaspiro[3.3]heptan-6-yl]-1-oxa-8-azaspiro[4.5]decan-3-yl]-4-oxo-quinazolin-6-yl]oxy-4-fluoro-phenyl]-5-azaspiro[2.4]heptane-5-sulfonamide] |  |  |  |  |  |  |  |  |  |  |  |  | 50 to 90 | < 1000 | < 1000 | < 1000 | 50 to 90
5 | CC(C)S(=O)(=O)Nc1ccc(F)c(Oc2ccc3ncn(C4CC5(CCN(C6CCC(c7cc8c(cc7F)c(N7CCC(=O)NC7=O)nn8C)CC6)CC5)C4)c(=O)c3c2)c1C#N (single isomer, unassigned) [Compound 96, N-[2-cyano-3-[3-[7-[4-[3-(2,4-dioxohexahydropyrimidin-1-yl)-5-fluoro-1-methyl-indazol-6-yl]cyclohexyl]-7-azaspiro[3.5]nonan-2-yl]-4-oxo-quinazolin-6-yl]oxy-4-fluoro-phenyl]propane-2-sulfonamide] | < 1000 | < 1000 | *** (<=50%) | < 1000 |  |  | < 1000 | < 1000 | *** (<=50%) | *** (<=50%) | < 1000 | < 1000 |  |  |  |  | 
